Assay [1] relates to Plasmodium falciparum, strain NF54, erythrocytic stages. The assay can be described thus: microbe, parasite or virus in culture. The following applies: for pIC50: NF54, read-out: P. falc. IC50; for IC50: NF54, read-out: P. falc. pIC50 (converted).
Assay [2] has as its system L6 cells (rat skeletal myoblasts). In words: cells. The following applies: L6, read-out: Cyt L6 IC50.
Assay [3] has as its system Trypanosoma brucei rhodesiense, STIB 900 strain, bloodstream forms. In words: microbe, parasite or virus in culture. The following applies: for pIC50: read-out: T. b. rhod. IC50; for IC50: read-out: T. b. rhod. pIC50 (converted).

Molecules are shown by their SMILES. pIC50: −log10 of the molar value. Like-named read-outs stand apart in the source and are kept apart here.

With `CCN(CC)CCCC(C)Nc1ccnc2cc(Cl)ccc12` (stereo not shown) [Chl., chloroquine, reference compound], in assay [1], the pIC50 – broadly, the IC50 on a negative log10 scale, so that one unit is a factor of ten – is 8.52 and the IC50 is 0.00302 µM. The pIC50 in assay [2] was 4.04.

Take `CC1=C(Cc2ccccc2)C(=O)c2ccccc2C1=O` [Compound 2a, 2-Benzyl-3-methyl-1,4-naphthoquinone]: the pIC50 is 4.20 in assay [3], 6.45 in assay [1] and 4.35 in assay [2]. Further, the figures for the IC50 in assay [3] and in assay [1] were 63.1 µM and 0.355 µM, respectively.

For the compound `CC1=C(Cc2ccc(C(F)(F)F)cc2F)C(=O)c2ccccc2C1=O` [Compound 2c, 2-{[2-Fluoro-4-(trifluoromethyl)phenyl]methyl}-3-methyl-1,4-naphthoquinone], the pIC50 in assay [3] is 4.09; in assay [1], 7.96; in assay [2], 4.21. The IC50 was 81.3 µM in assay [3] and 0.0115 µM in assay [1].

As for `CC1=C(Cc2ccc(F)cc2C(F)(F)F)C(=O)c2ccccc2C1=O` [Compound 2d, 2-{[4-Fluoro-2-(trifluoromethyl)phenyl]methyl}-3-methyl-1,4-naphthoquinone], the negative logarithm of the IC50 (pIC50) was 4.63 in assay [3], 7.70 in assay [1] and 4.21 in assay [2]. For the same compound, the IC50 is 23.4 µM in assay [3] and 0.02 µM in assay [1].

With `CC1=C(Cc2cc(C(F)(F)F)ccc2F)C(=O)c2ccccc2C1=O` [Compound 2e, 2-{[2-Fluoro-5-(trifluoromethyl)phenyl]methyl}-3-methyl-1,4-naphthoquinone], the pIC50 is 4.03 in assay [3], 8.22 in assay [1] and 4.37 in assay [2]. Also, the IC50 was 93.3 µM in assay [3] and 0.00575 µM in assay [1].

In the case of `CC1=C(Cc2ccc(Cl)nc2)C(=O)c2ccccc2C1=O` [Compound 2f, 2-[(6-Chloropyridin-3-yl)methyl]-3-methyl-1,4-naphthoquinone], the values for the pIC50 in assay [3], in assay [1] and in assay [2] were 5.08, 7.43 and 4.62, respectively. Further, the values for the IC50 in assay [3] and in assay [1] were 8.32 µM and 0.0372 µM, respectively.

For the compound `CC1=C(Cc2ccc([N+](=O)[O-])cc2)C(=O)c2ccccc2C1=O` [Compound 2g, 2-Methyl-3-[(4-nitrophenyl)methyl]-1,4-naphthoquinone], the values for the pIC50 in assay [3], in assay [1] and in assay [2] were 4.55, 6.95 and 4.72, respectively. For the same compound, the IC50 in assay [3] was 28.2 µM; in assay [1], 0.11 µM.

Consider `CC1=C(Cc2ccc([N+](=O)[O-])cc2F)C(=O)c2ccccc2C1=O` [Compound 2h, 2-[(2-Fluoro-4-nitrophenyl)methyl]-3-methyl-1,4-naphthoquinone], for which the pIC50 was 4.59 in assay [3], 7.66 in assay [1] and 4.76 in assay [2]. In addition, the IC50 is 25.7 µM in assay [3] and 0.0214 µM in assay [1].

As for `CC1=C(Cc2cc(F)c(F)cc2F)C(=O)c2ccccc2C1=O` [Compound 2i, 2-Methyl-3-[(2,4,5-trifluorophenyl)methyl]-1,4-naphthoquinone], the pIC50 in assay [3] was 4.52; in assay [1], 7.36; in assay [2] it was 4.26. Also, the results for the IC50 in assay [3] and in assay [1] were 30.2 µM and 0.0447 µM, respectively.

With `CC(=O)Nc1ccc(CC2=C(C)C(=O)c3ccccc3C2=O)cc1` [Compound 2j, 2-[(4-Acetamidophenyl)methyl]-3-methyl-1,4-naphthoquinone], the results for the pIC50 in assay [3], in assay [1] and in assay [2] were 4.54, 6.16 and 4.79, respectively. Also, the IC50 was 28.8 µM in assay [3] and 0.692 µM in assay [1].

On to `CC(=O)Nc1cccc(CC2=C(C)C(=O)c3ccccc3C2=O)c1` [Compound 2k, 2-[(3-Acetamidophenyl)methyl]-3-methyl-1,4-naphthoquinone], for which the pIC50 in assay [3] is 4.40; in assay [1], 6.12; in assay [2], 4.78. In addition, the IC50 is 39.8 µM in assay [3] and 0.759 µM in assay [1].

For `CC1=C(Cc2ccc(NC(=O)C(F)(F)F)cc2)C(=O)c2ccccc2C1=O` [Compound 2l, 2-Methyl-3-{[4-(2,2,2-trifluoroacetamido)phenyl]methyl}-1,4-naphthoquinone], the pIC50 is 4.63 in assay [3], 6.83 in assay [1] and 4.79 in assay [2]. For the same compound, the IC50 in assay [3] is 23.4 µM; in assay [1], 0.148 µM.

Take `CC1=C(Cc2cccc(NC(=O)C(F)(F)F)c2)C(=O)c2ccccc2C1=O` [Compound 2m, 2-Methyl-3-{[3-(2,2,2-trifluoroacetamido)phenyl]methyl}-1,4-naphthoquinone]: the negative-log IC50 (pIC50) was 4.62 in assay [3], 6.49 in assay [1] and 4.86 in assay [2]. For the same compound, the IC50 in assay [3] is 24 µM; in assay [1], 0.324 µM.

For the compound `CC1=C(Cc2ccc(F)cc2)C(=O)c2ccccc2C1=O` [Compound 2p, 2-[(4-Fluorophenyl)methyl]-3-methyl-1,4-naphthoquinone], the pIC50 in assay [3] was 4.48; in assay [1] it was 7.37; in assay [2] it was 4.29. Moreover, the IC50 in assay [3] is 33.1 µM; in assay [1] it was 0.0427 µM.

`CC1=C(Cc2ccc(OC(F)(F)F)cc2)C(=O)c2ccccc2C1=O` [Compound 2q, 2-Methyl-3-{[4-(trifluoromethoxy)phenyl]methyl}-1,4-naphthoquinone]: the pIC50 in assay [3] is 4.09; in assay [1], 7.54; in assay [2], 3.91. Moreover, the IC50 in assay [3] was 81.3 µM; in assay [1] it was 0.0288 µM.

For `CC1=C(Cc2cccc(OC(F)(F)F)c2)C(=O)c2ccccc2C1=O` [Compound 2r, 2-Methyl-3-{[3-(trifluoromethoxy)phenyl]methyl}-1,4-naphthoquinone], the results for the pIC50 in assay [3], in assay [1] and in assay [2] were 4.58, 7.31 and 4.09, respectively. Further, the IC50 in assay [3] was 26.3 µM; in assay [1], 0.049 µM.

Regarding `CC1=C(Cc2cc(OC(F)(F)F)ccc2F)C(=O)c2ccccc2C1=O` [Compound 2s, 2-{[2-Fluoro-5-(trifluoromethoxy)phenyl]methyl}-3-methyl-1,4-naphthoquinone], the pIC50 in assay [3] was 4.12; in assay [1], 7.42; in assay [2] it was 4.08. Also, the IC50 in assay [3] was 75.9 µM; in assay [1], 0.038 µM.

As to `O=C1C=C(Cc2ccccc2)C(=O)c2ccccc21` [Compound 4a, 2-Benzyl-1,4-naphthoquinone], the pIC50 in assay [3] is 6.50; in assay [1] it was 5.56; in assay [2] it was 4.21. Besides, the IC50 in assay [3] is 0.316 µM; in assay [1] it was 2.75 µM.

As for `O=C1C=C(Cc2ccc(C(F)(F)F)cc2)C(=O)c2ccccc21` [Compound 4b, 2-{[4-(Trifluoromethyl)phenyl]methyl}-1,4-naphthoquinone], the negative-log IC50 (pIC50) in assay [3] is 6.30; in assay [1], 6.16; in assay [2], 4.72. In addition, the results for the IC50 in assay [3] and in assay [1] were 0.501 µM and 0.692 µM, respectively.

With `Nc1nc(N)nc(Nc2ccc([As]3SCC(CO)S3)cc2)n1` (stereo not shown) [Mel., melarsoprol, reference compound], the values for the pIC50 in assay [3] and in assay [2] were 8.22 and 4.62, respectively. In addition, the IC50 in assay [3] is 0.00603 µM.

`COc1cc([C@@H]2c3cc4c(cc3[C@H](O)[C@H]3COC(=O)[C@H]23)OCO4)cc(OC)c1OC` [Pod., podophyllotoxin, reference compound]: the pIC50 in assay [2] was 7.62.

The values are drawn from publication PMC11900971 (International Journal of Molecular Sciences, 2025).
